Where a name gives a salt, the structure may show the parent alone.
Experiment: Drug release (dissolution) of the controlled release tablets, USP apparatus Type I
Assay type: physicochemical
Details: 900 ml phosphate buffer pH 7.5, USP Type I basket 100 rpm, Example tablet
Experimental: The tablets were characterized for drug release in 900 ml of phosphate buffer of pH 7.5. The USP apparatus Type I with basket speed at 100 rpm was used for the study. The samples of the media were periodically withdrawn and analyzed for drug content.

Cumulative percent drug released (1 hour)	Cumulative percent drug released (2 hours)	Cumulative percent drug released (3 hours)	Cumulative percent drug released (4 hours)	Cumulative percent drug released (5 hours)	Cumulative percent drug released (6 hours)	Cumulative percent drug released (8 hours)	Cumulative percent drug released (10 hours)	Cumulative percent drug released (12 hours)	Cumulative percent drug released (15 hours)	Cumulative percent drug released (18 hours)	Cumulative percent drug released (21 hours)	Cumulative percent drug released (24 hours)	Compound
6.5%	16.6%	27.1%	33.9%	41.5%	47.3%	55.4%	67.9%	75.2%	85.8%	93.0%	99.4%	102.5%	Cc1cnc(C(=O)NCCc2ccc(S(=O)(=O)NC(=O)NC3CCCCC3)cc2)cn1 [Glipizide]
28.83%	49.59%	64.74%	78.09%	88.49%	93.26%	97.29%	100.01%	103.93%	105.57%	105.92%	105.99%	106.47%	CN(C)C(=N)N=C(N)N [Metformin Hydrochloride, Metformin hydrochloride]

— patent US20030219482A1, “Multiparticulate compositions for once-a-day administration” (priority 2002, published 2003)
